In paper PMC9781827, “Isolation and Identification of Anti-Inflammatory Peptide from Goose Blood Hydrolysate to Ameliorate LPS-Mediated Inflammation and Oxidative Stress in RAW264.7 Macrophages” (Molecules, 2022):

Tests used:
Type in all cases: cell-based
RAW264.7 macrophages = assay: Viability / cytotoxicity of RAW264.7 macrophages; settings: for viability of RAW264.7 macrophages: 3.0 μg/mL LPS, mean ± S.D., repeated three times
Protocol: The method of RAW264.7 macrophage culture and treatments were based on the study of Li et al.. RAW264.7 macrophages (Lot number: BH0799, Chinese Academy of Sciences, Shanghai, China) were grown in DMEM-F medium (1:1) containing 3.15 g/L glucose, 0.365 g/L l-glutamine, 3.57 g/L HEPES, 10% FBS and 1% antibiotics at 37 °C in an atmosphere with 5% CO2 and 90% relative humidity. […] The optimal concentration of LPS for inducing inflammation in the RAW264.7 macrophage was ensured according to cell viability. Furthermore, RAW264.7 macrophages were cultured with different concentrations of GBP (100 μg/mL, 200 μg/mL and 400 μg/mL) to evaluate the cytotoxicity of GBP as described above. The ability of GBP to protect RAW264.7 macrophages was evaluated. In the LPS + GBP group, the macrophages medium supplemented with 200 μg/mL GBP was incubated for 2 h. Then, the macrophages medium was substituted with a macrophages medium supplemented with 1.0 μg/mL LPS and incubated for 24 h. In the LPS group, standard macrophages medium incubated for 2 h. Then, the standard macrophages medium was substituted with macrophages medium supplemented with 1.0 μg/mL LPS and incubated for 24 h. In the CTRL group, standard macrophages medium incubated for 2 h, Then, the standard macrophages medium was replaced with a new one and incubated for 24 h. Finally, the macrophages medium and macrophages were collected for further analysis.

ROS = ROS level in LPS-mediated RAW264.7 macrophages (DCFH-DA probe); settings: stimulation with LPS alone; mean ± S.D., n = 3
Protocol: (§1) The culture medium was collected and centrifuged at 3000× g for 10 min. Then, the inflammatory cytokines levels of TNF-α (MB-50051A), IL-1β (MB-50064B) and IL-6 (MB-50054A) in the culture medium were determined with ELISA kits (Jiangsu Enzyme marker Biotechnology Co., Ltd., Yancheng, China). […] (7) Add 50 μL of stop solution to each well, and measure its absorbance value at 450 nm wavelength. The activities of SOD, GSH-Px and the levels of ROS and Nitric oxide (NO) in macrophages were determined with spectrophotometric kits. […] The absorbance value of miscible liquid was measured at 450 nm wavelength by a multifunctional microplate reader; GSH-Px: 0.2 mL of sample was mixed with 0.2 mL GSH-Px (1 mmol/L) and performed at 37 °C for 5 min. […] The absorbance value was measured at 412 nm wavelength by a multifunctional microplate reader; ROS: DCFH-DA probe was added directly to serum-free medium: DCFH-DA was generally diluted with serum-free medium at a final concentration of 10 µM at 1:1000. […] In general, obvious green fluorescence can be observed in positive control cells after 20 min of stimulation. […] It can also be detected according to FITC fluorescence detection conditions. The results were expressed as fluorescence values.

NO = NO level in LPS-mediated RAW264.7 macrophages culture medium (spectrophotometric kit); settings: LPS group (CTRL 6.47 ± 1.29), mean ± S.D., n = 3
Protocol: as §1

In the case of lipopolysaccharide [LPS], the “viability of RAW264.7 macrophages” value (RAW264.7 macrophages; 24 h, Figure 1A) is reported as “approximately 51.51 ± 4.29%”, the “viability of RAW264.7 macrophages” value (RAW264.7 macrophages; LPS group of Figure 1C (CTRL 100 ± 7.35%)) is reported as 51.57 ± 7.07% and the “LPS concentration resulting in 50% RAW264.7 macrophages death” value (RAW264.7 macrophages; 24 h, estimated from viability at 3.0 μg/mL) is reported as “around 3.0 μg/mL”. The “levels of ROS” value (ROS) was 61.96 ± 2.27 U/mg prot and the “level of NO” value (NO) was 28.63 ± 2.48 μM/L.
